This passage reports IC50 results from patent US11273168B2, “Methods of treating anxiety by administering a substituted quinolone” (OTSUKA PHARMACEUTICAL CO., LTD., priority 2010, dated 2022).

Holding throughout (type): biochemical
One assay addresses T1, Serotonin (5-HT) uptake (Rattus norvegicus, UniProt P31652).
T1 construct: The suspension was used as a crude synaptosome fraction; from tissue; host or cells: rat (male Wistar) frontal cortex, crude synaptosome fraction
The experiment in a line: Serotonin (5-HT) uptake inhibitory activity using rat brain synaptosome (frontal cortex). Particulars: tritium-labeled 5-HT 8 nM, 37° C. 10 minutes. The procedure:
Measurement of Serotonin (5-HT) Uptake Inhibitory Activity of Test Compound Using Rat Brain Synaptosome
Male Wistar rats were decapitated, and their brains were removed and dissected to remove the frontal cortex. The separated frontal cortex was placed in a 20-fold weight of a 0.32 molarity (M) sucrose solution and homogenized with a potter homogenizer. The homogenate was centrifuged at 1000 g at 4° C. for 10 minutes, and the supernatant was further centrifuged at 20000 g at 4° C. for 20 minutes. […] The suspension was used as a crude synaptosome fraction.
(§1) Uptake reaction was performed using each well of a 96-well round-bottom plate and a 200 μl volume in total of a solution containing pargyline (final concentration: 10 μM) and ascorbic acid (final concentration: 0.2 mg/ml).
(§2) Specifically, a solvent, unlabeled 5-HT, and serially diluted test compounds were separately added to the wells, and the synaptosome fraction was added in an amount 1/10 of the final volume to each well and preincubated at 37° C. for 10 minutes. Then, a tritium-labeled 5-HT solution (final concentration: 8 nM) was added thereto to initiate uptake reaction at 37° C. 10 minutes later, the uptake reaction was terminated by suction filtration through a 96-well glass fiber filter plate. Furthermore, the filter was washed with a cold saline and then sufficiently dried. MicroScint-O (PerkinElmer Co., Ltd.) was added thereto, and the residual radioactivity on the filter was measured.
An uptake value obtained by the addition of only the solvent was defined as 100%, and an uptake value (nonspecific uptake value) obtained by the addition of the unlabeled 5-HT (final concentration: 10 μM) was defined as 0%. A 50%, inhibitory concentration was calculated from the test compound concentrations and inhibitory activities thereat.

For a further assay, the target named is T2, Dopamine (DA) uptake (Rattus norvegicus, UniProt P23977).
T2 construct: The suspension was used as a crude synaptosome fraction; from tissue; host or cells: rat (male Wistar) corpus striatum, crude synaptosome fraction
T2 sequence (P23977 whole entry): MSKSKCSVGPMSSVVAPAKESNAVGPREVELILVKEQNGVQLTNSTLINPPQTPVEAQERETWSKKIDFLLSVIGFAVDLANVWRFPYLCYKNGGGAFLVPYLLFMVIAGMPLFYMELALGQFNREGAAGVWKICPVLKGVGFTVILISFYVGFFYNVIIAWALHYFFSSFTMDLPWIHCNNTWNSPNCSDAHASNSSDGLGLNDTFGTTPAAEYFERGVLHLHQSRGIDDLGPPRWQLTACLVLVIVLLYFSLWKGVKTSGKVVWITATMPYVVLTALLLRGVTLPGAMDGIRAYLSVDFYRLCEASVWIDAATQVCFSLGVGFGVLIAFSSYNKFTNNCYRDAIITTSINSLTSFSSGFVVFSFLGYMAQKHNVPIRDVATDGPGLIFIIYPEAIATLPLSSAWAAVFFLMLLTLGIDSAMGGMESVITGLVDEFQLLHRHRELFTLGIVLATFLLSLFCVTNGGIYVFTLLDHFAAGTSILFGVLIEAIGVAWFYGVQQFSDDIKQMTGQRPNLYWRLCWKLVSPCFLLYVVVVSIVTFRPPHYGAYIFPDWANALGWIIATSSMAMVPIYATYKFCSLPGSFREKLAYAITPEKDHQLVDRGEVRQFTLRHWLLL
As to the kind of experiment: Dopamine (DA) uptake inhibitory activity using rat brain synaptosome (corpus striatum). The conditions noted are these: tritium-labeled DA 2 nM, 37° C. ten minutes, read-out: 50% Inhibitory concentration. The method, then: Measurement of Dopamine (DA) Uptake Inhibitory Activity of Test Compound Using Rat Brain Synaptosome
Male Wistar rats were decapitated, and their brains were removed and dissected to remove the corpus striatum. The separated corpus striatum was placed in a 20-fold weight of a 0.32 molarity (M) sucrose solution and homogenized with a potter homogenizer. The homogenate was centrifuged at 1000 g at 4° C. for 10 minutes, and the supernatant was further centrifuged at 20000 g at 4° C. for 20 minutes. […] The suspension was used as a crude synaptosome fraction.
Uptake reaction was performed using each well of a 96-well round-bottom plate and a 200 μl volume in total of a solution containing pargyline (final concentration: 10 μM) and ascorbic acid (final concentration: 0.2 mg/mil).
as §2, with “unlabeled DA,” for “unlabeled 5-HT,”, “tritium-labeled DA” for “tritium-labeled 5-HT”, “concentration: 2” for “concentration: 8”, “C. Ten” for “C. 10”
An uptake value obtained by the addition of only the solvent was defined as 100%, and an uptake value (nonspecific uptake value) obtained by the addition of the unlabeled DA (final concentration: 10 μM) was defined as 0%. A 50% inhibitory concentration was calculated from the test compound concentrations and inhibitory activities thereat.

For assay [1], the target named is Norepinephrine (NE) uptake (Rattus norvegicus, UniProt Q9WTR4). The experiment in a line: Norepinephrine (NE) uptake inhibitory activity using rat brain synaptosome (hippocampus). The method, then:
Measurement of Norepinephrine (NE) Uptake Inhibitory Activity of Test Compound Using Rat Brain Synaptosome
Male Wistar rats were decapitated, and their brains were removed and dissected to remove the hippocampus. The separated hippocampus was placed in a 20-fold weight of a 0.32 molarity (M) sucrose solution and homogenized with a potter homogenizer. The homogenate was centrifuged at 1000 g at 4° C. for 10 minutes, and the supernatant was further centrifuged at 20000 g at 4° C. for 20 minutes. The pellet was suspended in an incubation buffer (20 mM HEPES buffer (pH 7.4) containing 10 mM glucose, 145 mM sodium chloride, 4.5 mM potassium chloride, 1.2 mM magnesium chloride, and 1.5 mM calcium chloride). The suspension was used as a crude synaptosome fraction.
as §1
as §2, with “unlabeled NE,” for “unlabeled 5-HT,”, “tritium-labeled NE” for “tritium-labeled 5-HT”, “concentration: 12” for “concentration: 8”, “C. Ten” for “C. 10”
An uptake value obtained by the addition of only the solvent was defined as 100%, and an uptake value (nonspecific uptake value) obtained by the addition of the unlabeled NE (final concentration: 10 μM) was defined as 0%. A 50% inhibitory concentration was calculated from the test compound concentrations and inhibitory activities thereat.

Setting [2] is: read-out: 50% Inhibitory concentration.
The mark [3] stands for this setting: tritium-labeled NE 12 nM, 37° C. ten minutes, read-out: 50% inhibitory concentration.

pIC50: −log10 of the molar value. Read-outs that look alike come from different tables or passages of the source.

T1 sequence (P31652 whole entry): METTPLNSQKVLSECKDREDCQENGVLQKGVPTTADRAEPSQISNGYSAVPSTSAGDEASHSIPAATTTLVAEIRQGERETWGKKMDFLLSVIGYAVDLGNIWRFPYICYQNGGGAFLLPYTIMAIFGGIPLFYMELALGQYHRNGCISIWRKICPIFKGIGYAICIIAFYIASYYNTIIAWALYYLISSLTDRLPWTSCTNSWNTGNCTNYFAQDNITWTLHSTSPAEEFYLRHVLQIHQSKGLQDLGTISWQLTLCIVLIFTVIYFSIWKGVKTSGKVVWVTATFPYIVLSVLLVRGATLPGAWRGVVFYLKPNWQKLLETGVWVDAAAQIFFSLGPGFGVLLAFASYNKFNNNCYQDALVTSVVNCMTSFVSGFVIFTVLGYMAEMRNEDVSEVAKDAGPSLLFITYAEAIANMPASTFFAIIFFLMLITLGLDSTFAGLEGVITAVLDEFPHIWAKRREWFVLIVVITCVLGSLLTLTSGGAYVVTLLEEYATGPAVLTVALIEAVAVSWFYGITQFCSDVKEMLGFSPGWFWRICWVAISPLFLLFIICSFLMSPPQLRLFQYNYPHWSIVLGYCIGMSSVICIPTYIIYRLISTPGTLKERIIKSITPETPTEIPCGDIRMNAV

Consider `CC1(C)CN(c2ccc3cc(OC(F)F)ccc3c2)[C@H]2CCCC[C@@H]2N1` [Example 867], for which the results for the pIC50 (at Serotonin (5-HT) uptake (setting [2]); at Dopamine (DA) uptake; in assay [1] (setting [3])) were 8.33, 7.07 and 7.93, respectively.

As to `CC1(C)CN(c2cc(F)cc3ccsc23)[C@@H]2CCCC[C@@H]2N1` [Example 621], the pIC50 was 8.15 against Serotonin (5-HT) uptake (50% Inhibitory concentration); 6.89 on Dopamine (DA) uptake; 9.15 in assay [1] (read-out: 50% inhibitory concentration, tritium-labeled NE 12 nM, 37° C. ten minutes).

Take `C[C@@H]1CN(c2ccc(F)c3occc23)[C@H]2CCCC[C@@H]2N1` [Example 1124]: the pIC50 at Serotonin (5-HT) uptake (setting [2]) is 8.15; at Dopamine (DA) uptake it was 7.31; in assay [1] (setting [3]) it was 9.10.

Take `COc1cc2ccc(N3CC(C)(C)N[C@H]4CCCC[C@H]43)cc2cc1C#N` [Example 610]: the values for the pIC50 (at Serotonin (5-HT) uptake (setting [2]); at Dopamine (DA) uptake; in assay [1] (setting [3])) were 8.34, 7.88 and 8.23, respectively.

As for `Cn1c(C#N)cc2cc(N3CC(C)(C)N[C@@H]4CCCC[C@@H]43)ccc21` [Example 150, 5-((4aR,8aS)-3,3-dimethyldecahydroquinoxalin-1-yl)-1-methyl-1H-indole-2-carbonitrile], the pIC50 on Serotonin (5-HT) uptake (setting [2]) is 8.27; on Dopamine (DA) uptake it was 6.70; in assay [1] (setting [3]), 7.63.

Take `CC1(C)CN(c2ccc(F)c3occc23)[C@H]2CCCC[C@H]2N1` [Example 136]: the pIC50 at Serotonin (5-HT) uptake (setting [2]) is 8.89; at Dopamine (DA) uptake it was 8.11; in assay [1] (setting [3]) it was 9.30.

In the case of `C[C@@H]1CN(c2ccc3sccc3c2)[C@H]2CCCC[C@@H]2N1` (relative stereo) [Example 285], the pIC50 on Serotonin (5-HT) uptake (setting [2]) is 7.71; at Dopamine (DA) uptake, 7.36; in assay [1] (setting [3]) it was 8.85.

Consider `C[C@@H]1CN(c2ccc(F)c3ccccc23)[C@H]2CCCC[C@@H]2N1` [Example 1318], for which the pIC50 on Serotonin (5-HT) uptake (setting [2]) was 7.39; at Dopamine (DA) uptake, 7.08; in assay [1] (setting [3]), 8.18.

`CC1(C)CN(c2cccc3sccc23)[C@H]2CCCC[C@H]2N1` [Example 124]: the pIC50 was 8.07 at Serotonin (5-HT) uptake (setting [2]), 8.04 at Dopamine (DA) uptake and 9.10 in assay [1] (setting [3]).

With `CN1[C@@H]2CCCC[C@@H]2N(c2cccc3occc23)CC1(C)C` [Example 132], the values for the pIC50 (at Serotonin (5-HT) uptake (setting [2]); at Dopamine (DA) uptake; in assay [1] (setting [3])) were 8.06, 8.41 and 8.51, respectively.

Consider `CC1(C)CN(c2ccc(Cl)c(Cl)c2)C2CCCC2N1` (stereo not drawn) [Example 10], for which the pIC50 at Serotonin (5-HT) uptake (setting [2]) was 8.21; on Dopamine (DA) uptake it was 7.19; in assay [1] (setting [3]), 8.06.

As for `CC1(C)CN(c2ccc(F)c3[nH]ccc23)[C@H]2CCCC[C@H]2N1` [Example 780], the pIC50 at Serotonin (5-HT) uptake (setting [2]) is 8.19; at Dopamine (DA) uptake it was 8.37; in assay [1] (setting [3]), 9.22.

In the case of `Cc1c(Cl)cccc1N1CC(C)(C)N[C@H]2CCCC[C@H]21` [Example 468], the pIC50 on Serotonin (5-HT) uptake (setting [2]) was 8.42; on Dopamine (DA) uptake, 7.27; in assay [1] (setting [3]) it was 8.12.

On to `COc1c(F)cc(N2CC(C)(C)N[C@H]3CCCC[C@@H]32)cc1F` [Example 233], for which the pIC50 is 8.13 at Serotonin (5-HT) uptake (setting [2]), 7.41 on Dopamine (DA) uptake and 8.43 in assay [1] (setting [3]).

On to `COc1ccc(N2CC3(CCC3)N[C@H]3CCCC[C@H]32)c2ccoc12` [Example 579, (4a′R,8a′S)-4′-(7-methoxybenzofuran-4-yl)octahydro-1′H-spiro[cyclobutane-1,2′-quinoxaline]], for which the pIC50 on Serotonin (5-HT) uptake (setting [2]) is 8.35; on Dopamine (DA) uptake, 7.33; in assay [1] (setting [3]), 8.29.

On to `CC1(C)CN(c2ccc3sccc3c2)[C@@H]2CCC[C@@H]2N1` (racemic) [Example 7], for which the pIC50 at Serotonin (5-HT) uptake (setting [2]) is 9.00; at Dopamine (DA) uptake it was 7.10; in assay [1] (setting [3]), 8.02.

`CC1(C)CN(c2cccc3ccsc23)[C@@H]2CCCC[C@@H]2N1` [Example 72]: the pIC50 is 8.59 at Serotonin (5-HT) uptake (setting [2]), 7.32 at Dopamine (DA) uptake and 9.00 in assay [1] (setting [3]).

For `CC1(C)CN(c2ccc3ncsc3c2)[C@H]2CCCC[C@@H]2N1` (racemic) [Example 405], the pIC50 at Serotonin (5-HT) uptake (setting [2]) is 8.19; on Dopamine (DA) uptake, 7.13; in assay [1] (setting [3]), 8.36.
